Reference: patent publication US8188078B2 (Sanofi-Aventis, priority 2007, dated 2012)

What was measured:
MET = molecular target: T1, MET (Homo sapiens, UniProt P08581); experiment: Test C: inhibition of the autophosphorylation of MET, ELISA technique (pppY1230, 1234, 1235), MKN45 cells; assay type: cell-based
T1 construct: endogenous in cells; host or cells: MKN45 cells
Outline: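 MKN45 cells adhered 24 h, then treated 1 h with compound at 6 concentrations in duplicate, final range 10000 to 30 nM. Lysates assayed by phospho-MET (pY1230/1234/1235) sandwich ELISA with HRP chromogen read at 450 nm.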

T1 sequence (P08581 25-1390): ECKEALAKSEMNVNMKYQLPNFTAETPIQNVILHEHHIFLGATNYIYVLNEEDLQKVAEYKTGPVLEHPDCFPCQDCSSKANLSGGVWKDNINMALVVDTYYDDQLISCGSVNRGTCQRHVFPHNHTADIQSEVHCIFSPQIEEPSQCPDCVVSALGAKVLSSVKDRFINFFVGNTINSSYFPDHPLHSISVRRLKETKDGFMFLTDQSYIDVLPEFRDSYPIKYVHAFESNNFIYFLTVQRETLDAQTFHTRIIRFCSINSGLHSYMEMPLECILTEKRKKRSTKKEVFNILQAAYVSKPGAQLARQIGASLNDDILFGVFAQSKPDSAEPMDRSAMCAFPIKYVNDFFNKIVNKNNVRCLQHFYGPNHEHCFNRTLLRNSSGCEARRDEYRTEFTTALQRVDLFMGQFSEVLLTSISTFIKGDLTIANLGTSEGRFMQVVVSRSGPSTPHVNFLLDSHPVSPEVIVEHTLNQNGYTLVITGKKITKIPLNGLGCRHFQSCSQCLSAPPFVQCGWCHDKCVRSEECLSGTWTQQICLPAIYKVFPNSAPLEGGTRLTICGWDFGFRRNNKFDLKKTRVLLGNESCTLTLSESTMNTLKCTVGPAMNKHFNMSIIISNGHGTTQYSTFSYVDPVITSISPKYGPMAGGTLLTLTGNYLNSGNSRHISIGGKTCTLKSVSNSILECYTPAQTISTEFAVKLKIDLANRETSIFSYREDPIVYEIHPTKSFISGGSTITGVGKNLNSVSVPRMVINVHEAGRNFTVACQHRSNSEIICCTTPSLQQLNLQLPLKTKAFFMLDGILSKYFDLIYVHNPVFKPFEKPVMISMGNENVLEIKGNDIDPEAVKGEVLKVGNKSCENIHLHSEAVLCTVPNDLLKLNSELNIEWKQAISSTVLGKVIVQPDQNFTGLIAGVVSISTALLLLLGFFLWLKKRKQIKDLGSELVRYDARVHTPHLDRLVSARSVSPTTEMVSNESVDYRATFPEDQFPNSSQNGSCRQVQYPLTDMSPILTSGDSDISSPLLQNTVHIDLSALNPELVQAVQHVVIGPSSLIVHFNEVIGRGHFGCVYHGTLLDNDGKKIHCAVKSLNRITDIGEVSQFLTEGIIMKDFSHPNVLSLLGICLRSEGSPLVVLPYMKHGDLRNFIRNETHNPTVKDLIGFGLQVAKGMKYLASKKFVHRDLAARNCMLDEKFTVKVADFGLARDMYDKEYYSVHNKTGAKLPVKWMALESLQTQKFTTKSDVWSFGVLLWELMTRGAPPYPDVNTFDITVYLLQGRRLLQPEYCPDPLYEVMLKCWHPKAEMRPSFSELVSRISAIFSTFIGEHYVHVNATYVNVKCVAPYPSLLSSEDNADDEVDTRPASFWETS

Structure (SMILES)	melting point [°C]	IC50 (MET) [nM]
CC(Oc1ccc2nc(NC(=O)C3CC3)sc2c1)c1c(Cl)ccc(F)c1Cl (centres unmarked) [Example 66, N-{6-[1-(2,6-dichloro-3-fluorophenyl)ethoxy]-1,3-benzothiazol-2-yl}cyclopropanecarboxamide]	194 to 199	< 500
CC(Oc1cc2sc(NC(=O)NCCCN)nc2cc1F)c1c(Cl)ccc(F)c1Cl (centres unmarked) [Example 128, 1-(3-aminopropyl)-3-{6-[1-(2,6-dichloro-3-fluorophenyl)ethoxy]-5-fluoro-1,3-benzothiazol-2-yl}urea]	163	< 500
Cc1ccc(F)c(C(C)Oc2ccc3nc(NC(=O)NCCN4CCOCC4)sc3c2)c1Cl (centres unmarked) [Example 28, 1-{6-[1-(2-chloro-6-fluoro-3-methylphenyl)ethoxy]-1,3-benzothiazol-2-yl}-3-(2-morpholin-4-ylethyl)urea]	165 to 170	500 to 10000
CC(Oc1ccc2nc(NC(=O)NCCN3CCOCC3)[nH]c2c1)c1c(Cl)cccc1Cl (centres unmarked) [Example 2, 1-{6-[1-(2,6-dichlorophenyl)ethoxy]-1H-benzimidazol-2-yl}-3-(2-morpholin-4-ylethyl)urea]	215 to 220	500 to 10000
O=C(NCCN1CCOCC1)Nc1nc2ccc(OC(c3c(Cl)cccc3Cl)C(F)(F)F)cc2s1 (centres unmarked) [Example 64, 1-{6-[1-(2,6-dichlorophenyl)-2,2,2-trifluoroethoxy]-1,3-benzothiazol-2-yl}-3-(2-morpholin-4-ylethyl)urea]	150 to 160	500 to 10000
CC(Oc1ccc2nc(NC(=O)NCCN3CCOCC3)sc2c1)c1c(Cl)ccc(F)c1Cl (centres unmarked) [Example 24, 1-{6-[1-(2,6-dichloro-3-fluorophenyl)ethoxy]-1,3-benzothiazol-2-yl}-3-(2-morpholin-4-ylethyl)urea]	110	< 500
CC(Oc1ccc2nc(NC(=O)NCCN3CCCC3)sc2c1)c1c(Cl)ccc(Cl)c1Cl (centres unmarked) [Example 125, 1-[2-(pyrrolidin-1-yl)ethyl]-3-{6-[1-(2,3,6-trichlorophenyl)ethoxy]-1,3-benzothiazol-2-yl}urea]	189	500 to 10000
COCCCNC(=O)Nc1nc2cc(F)c(OC(C)c3c(Cl)ccc(F)c3Cl)cc2s1 (centres unmarked) [Example 104, 1-{6-[1-(2,6-dichloro-3-fluorophenyl)ethoxy]-5-fluoro-1,3-benzothiazol-2-yl}-3-(3-methoxypropyl)urea]	175	< 500
CC(Oc1cc2sc(NC(=O)NCCN3CCN(C)CC3)nc2cc1F)c1c(F)ccc(Cl)c1Cl (centres unmarked) [Example 115, 1-{6-[1-(2,3-dichloro-6-fluorophenyl)ethoxy]-5-fluoro-1,3-benzothiazol-2-yl}-3-[2-(4-methylpiperazin-1-yl)ethyl]urea]	120	< 500
CC(Oc1cc2[nH]c(NC(=O)NCCN3CCOCC3)nc2cc1F)c1c(Cl)cccc1Cl (centres unmarked) [Example 5, 1-{6-[1-(2,6-dichlorophenyl)ethoxy]-5-fluoro-1H-benzimidazol-2-yl}-3-(2-morpholin-4-ylethyl)urea]	210 to 216	500 to 10000
CC(Oc1cc2sc(NC(=O)NCC(=O)N3CCN(C)CC3)nc2cc1F)c1c(Cl)ccc(F)c1Cl (centres unmarked) [Example 129, 1-{6-[1-(2,6-dichloro-3-fluorophenyl)ethoxy]-5-fluoro-1,3-benzothiazol-2-yl}-3-[2-(4-methylpiperazin-1-yl)-2-oxoethyl]urea]	235 to 238	< 500
O=C(NCCN1CCOCC1)Nc1nc2ccc(OCc3c(Cl)cccc3Cl)cc2s1 [Example 10, 1-{6-[(2,6-dichlorobenzyl)oxy]-1,3-benzothiazol-2-yl}-3-(2-morpholin-4-ylethyl)urea]	268 to 271	500 to 10000
CC(Oc1cc2sc(NC(=O)NCCN3CCOCC3)nc2cc1Cl)c1c(Cl)ccc(F)c1Cl (centres unmarked) [Example 106, 1-{5-chloro-6-[1-(2,6-dichloro-3-fluorophenyl)ethoxy]-1,3-benzothiazol-2-yl}-3-[2-(morpholin-4-yl)ethyl]urea]	196 to 198	500 to 10000
CC(Oc1cc2sc(NC(=O)CCCN3CCCC3)nc2cc1F)c1c(Cl)ccc(F)c1Cl (centres unmarked) [Example 68, N-{6-[1-(2,6-dichloro-3-fluorophenyl)ethoxy]-5-fluoro-1,3-benzothiazol-2-yl}-4-(pyrrolidin-1-yl)butanamide]	153 to 157	< 500
CC(Oc1ccc2nc(NC(=O)NCCN3CCOCC3)[nH]c2c1)c1cc(F)ccc1Cl (centres unmarked) [Example 3, 1-{6-[1-(2-chloro-5-fluorophenyl)ethoxy]-1H-benzimidazol-2-yl}-3-(2-morpholin-4-ylethyl)urea]	210	500 to 10000
CC(Oc1ccc2nc(NC(=O)NCCN3CCN(C)CC3)sc2c1)c1c(F)ccc(Cl)c1Cl (single isomer, unassigned) [Example 109, 1-{6-[(1R*)-1-(2,3-dichloro-6-fluorophenyl)ethoxy]-1,3-benzothiazol-2-yl}-3-[2-(4-methylpiperazin-1-yl)ethyl]urea]		< 500
CCN(CC)CCCOC(=O)Nc1nc2cc(F)c(OC(C)c3c(Cl)ccc(F)c3Cl)cc2s1 (centres unmarked) [Example 70]		500 to 10000

Continued, values first:

melting point [°C]	IC50 (MET) [nM]	Structure (SMILES)
92 to 95	500 to 10000	Cc1ccc(F)c(C(C)Oc2ccc3nc(NC(=O)NCCN4CCOCC4)sc3c2)c1F (centres unmarked) [Example 123, 1-{6-[1-(2,6-difluoro-3-methylphenyl)ethoxy]-1,3-benzothiazol-2-yl}-3-[2-(morpholin-4-yl)ethyl]urea]
150 to 152	< 500	CCN1CCN(CCNC(=O)Nc2nc3cc(F)c(OC(C)c4c(Cl)ccc(F)c4Cl)cc3s2)CC1 (centres unmarked) [Example 100, 1-{6-[1-(2,6-dichloro-3-fluorophenyl)ethoxy]-5-fluoro-1,3-benzothiazol-2-yl}-3-[2-(4-ethylpiperazin-1-yl)ethyl]urea]
206	500 to 10000	O=C(NCCN1CCOCC1)Nc1nc2cc(F)c(OCc3c(Cl)cccc3Cl)cc2s1 [Example 21, 1-{6-[(2,6-dichlorobenzyl)oxy]-5-fluoro-1,3-benzothiazol-2-yl}-3-(2-morpholin-4-ylethyl)urea]
103 to 107	500 to 10000	CC(Oc1cc2sc(NC(=O)NCCN3CCCC3)nc2cc1F)c1c(Cl)ccc(Cl)c1Cl (centres unmarked) [Example 126, 1-{5-fluoro-6-[1-(2,3,6-trichlorophenyl)ethoxy]-1,3-benzothiazol-2-yl}-3-[2-(pyrrolidin-1-yl)ethyl]urea]
188 to 190	< 500	CC(Oc1cc2sc(NC(=O)CN3CCNCC3)nc2cc1F)c1c(Cl)ccc(F)c1Cl (centres unmarked) [Example 69, N-{6-[1-(2,6-dichloro-3-fluorophenyl)ethoxy]-5-fluoro-1,3-benzothiazol-2-yl}-2-(piperazin-1-yl)acetamide]
195	< 500	CC(Oc1cc2sc(NC(=O)NCCCN3CCCC3=O)nc2cc1F)c1c(F)ccc(Cl)c1Cl (centres unmarked) [Example 114, 1-{6-[1-(2,3-dichloro-6-fluorophenyl)ethoxy]-5-fluoro-1,3-benzothiazol-2-yl}-3-[3-(2-oxopyrrolidin-1-yl)propyl]urea]
105 to 110	< 500	CC(Oc1ccc2nc(NC(=O)NCCN3CCN(C)CC3)sc2c1)c1c(F)ccc(Cl)c1Cl (centres unmarked) [Example 108, 1-{6-[1-(2,3-dichloro-6-fluorophenyl)ethoxy]-1,3-benzothiazol-2-yl}-3-[2-(4-methylpiperazin-1-yl)ethyl]urea]
102 to 105	< 500	CC(Oc1ccc2nc(NC(=O)NCCC3CCCN3C)sc2c1)c1c(F)ccc(Cl)c1Cl (centres unmarked) [Example 110, 1-{6-[1-(2,3-dichloro-6-fluorophenyl)ethoxy]-1,3-benzothiazol-2-yl}-3-[2-(1-methylpyrrolidin-2-yl)ethyl]urea]
133 to 139	500 to 10000	CC(Oc1ccc2nc(NC(=O)NCCN3CCC(Cc4ccccc4)CC3)sc2c1)c1c(Cl)ccc(F)c1Cl (centres unmarked) [Example 34, 1-[2-(4-benzylpiperidin-1-yl)ethyl]-3-{6-[1-(2,6-dichloro-3-fluorophenyl)ethoxy]-1,3-benzothiazol-2-yl}urea]
183	< 500	CNCCCNC(=O)Nc1nc2cc(F)c(OC(C)c3c(Cl)ccc(F)c3Cl)cc2s1 (centres unmarked) [Example 127, 1-{6-[1-(2,6-dichloro-3-fluorophenyl)ethoxy]-5-fluoro-1,3-benzothiazol-2-yl}-3-[3-(methylamino)propyl]urea]
187	500 to 10000	CC(Oc1ccc2nc(NC(=O)NCCN3CCOCC3)sc2c1)c1c(F)ccc(F)c1F (centres unmarked) [Example 60, 1-(2-morpholin-4-ylethyl)-3-{6-[1-(2,3,6-trifluorophenyl)ethoxy]-1,3-benzothiazol-2-yl}urea]
87	500 to 10000	CC(Oc1ccc2nc(NC(=O)NCCN3CCN(C(=O)OC(C)(C)C)CC3)sc2c1)c1c(Cl)ccc(F)c1Cl (centres unmarked) [Example 36, 1,1-dimethylethyl 4-{2-[({6-[1-(2,6-dichloro-3-fluorophenyl)ethoxy]-1,3-benzothiazol-2-yl}carbamoyl)amino]ethyl}piperazine-1-carboxylate]
200	< 500	CC(Oc1ccc2nc(NC(=O)NCCN3CCOCC3)sc2c1)c1c(F)ccc(Cl)c1Cl (centres unmarked) [Example 61, 1-{6-[1-(2,3-dichloro-6-fluorophenyl)ethoxy]-1,3-benzothiazol-2-yl}-3-(2-morpholin-4-ylethyl)urea]
	< 500	CC(Oc1ccc2nc(NC(=O)NCCCN3CCCC3=O)sc2c1)c1c(Cl)ccc(F)c1Cl (centres unmarked) [Example 45, 1-{6-[1-(2,6-dichloro-3-fluorophenyl)ethoxy]-1,3-benzothiazol-2-yl}-3-[3-(2-oxopyrrolidin-1-yl)propyl]urea]
